From patent US20240300980A1, “HETEROCYCLIC COMPOUNDS AS KRAS INHIBITOR, AND PREPARATION THEREFOR AND USE THEREOF IN TREATMENT” (SHANGHAI KECHOW PHARMA, INC., priority 2021, published 2024)

Tested on: AGS cells (KRAS^G12D)
Assay: Detection of cell proliferation in vitro by MTT/MTS method (cell activity experiment)
Format: cell-based
Conditions: AGS cells; MTT/MTS; 3 days of drug treatment; read-out: AGS IC50
Summary of the method: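 After 3-day compound exposure (final DMSO 0.5%), viability of AGS (KRAS G12D) cells, plated 1000/well one day before dosing, was measured at 490 nm following 4 h MTT or MTS incubation. IC50 was fitted from dose–effect curves relative to DMSO-treated wells.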

Compound | IC50 [nM]
CCc1c(F)ccc2cc(O)cc(-c3ccc4c(N5C[C@H]6CC[C@@H](C5)[C@@H]6F)nc(OC[C@@]56CCCN5C[C@H](F)C6)nc4c3F)c12 [Example 124, 5-ethyl-6-fluoro-4-(8-fluoro-4-((1R,5S, 8R)-8-fluoro-3-azabicyclo[3.2.1]octan-3-yl)-2-(((2R,7aS)-2-fluorotetrahydro-1H-pyrrolizin-7a(5H)-yl)methoxy)quinazolin-7-yl)naphthalen-2-ol] | > 2500
CCC1CCCc2cc(O)cc(-c3ccc4c(N5C[C@H]6CC[C@@H](C5)N6)nc(OC[C@@]56CCCN5C[C@H](F)C6)nc4c3F)c21 (single isomer, unassigned) [Example 291] | 7.2

Same assay, conditions: Homo sapiens, AGS, 72 h, AGS cells; MTT/MTS; 3 days of drug treatment; read-out: AGS IC50

Compound | IC50 [nM]
Oc1cccc2cccc(C#Cc3ccc4c(N5C[C@H]6CC[C@@H](C5)N6)nc(OC[C@@]56CCCN5C[C@H](F)C6)nc4c3F)c12 [Example 364, 8-((4-((1R,5S)-3,8-diazabicyclo[3.2.1]octan-3-yl)-8-fluoro-2-(((2R,7aS)-2-fluorotetrahydro-1H-pyrrolizin-7a(5H)-yl)methoxy)quinazolin-7-yl)ethynyl)naphthalen-1-ol] | 811
CC1CCc2cc(O)cc(-c3c(Cl)cc4c(N5C[C@H]6CC[C@@H](C5)N6)nc(OC[C@@]56CCCN5C[C@H](F)C6)nc4c3F)c21 (stereo partly drawn) [Example 304, 7-(4-((1R,5S)-3,8-diazabicyclo[3.2.1]octan-3-yl)-6-chloro-8-fluoro-2-(((2R,7aS)-2-fluorotetrahydro-1H-pyrrolizin-7a(5H)-yl)methoxy)quinazolin-7-yl)-1-methyl-2,3-dihydro-1H-inden-5-ol] | 35
C#Cc1c(F)ccc2cc(O)cc(-c3ccc4c(N5C[C@H]6CC[C@@H](C5)N6)nc(OC[C@]56CCCN5[C@@H](COC(=O)N(C)C)CC6)nc4n3)c12 [Example 145, ((3R,7aR)-7a-(((4-((1R, 5S)-3,8-diazabicyclo [3.2.1]octan-3-yl)-7-(8-ethynyl-7-fluoro-3-hydroxynaphthalen-1-yl)pyrido[2,3-d]pyrimidin-2-yl)oxy)methyl)hexahydro-1H-pyrrolizin-3-yl)methyl dimethylcarbamate] | > 2500
C/C=C1\C(=O)Cc2cc(O)cc(-c3ncc4c(N5C[C@H]6CC[C@@H](C5)N6)nc(OC[C@@]56CCCN5C[C@H](F)C6)nc4c3F)c21 [Example 264, (Z)-7-(4-((1R,5S)-3,8-diazabicyclo[3.2.1]octan-3-yl)-8-fluoro-2-(((2R,7aS)-2-fluorotetrahydro-1H-pyrrolizin-7a(5H)-yl)methoxy)pyrido[4,3-d]pyrimidin-7-yl)-1-ethylidene-5-hydroxy-1,3-dihydro-2H-inden-2-one] | > 10000
Oc1cc(-c2ncc3c(C4C[C@H]5CC[C@@H](C4)N5)nc(OC[C@@]45CCCN4C[C@H](F)C5)nc3c2F)c2c(F)c(F)ccc2c1 (stereo partly drawn) [Example 78, 4-(4-((1R,5S)-8-azabicyclo[3.2.1]octan-3-yl)-8-fluoro-2-(((2R,7aS)-2-fluorotetrahydro-1H-pyrrolizin-7a(5H)-yl)methoxy)pyrido[4,3-d]pyrimidin-7-yl)-5,6-difluoronaphthalen-2-ol] | > 2500
Cn1cnc2cc(O)cc(-c3ncc4c(N5C[C@H]6CC[C@@H](C5)N6)nc(OC[C@@]56CCCN5C[C@H](F)C6)nc4c3F)c21 [Example 279, 7-(4-((1R,5S)-3,8-diazabicyclo[3.2.1]octan-3-yl)-8-fluoro-2-(((2R,7aS)-2-fluorotetrahydro-1H-pyrrolizin-7a(5H)-yl)methoxy)pyrido[4,3-d]pyrimidin-7-yl)-1-methyl-1H-benzo[d]imidazol-5-ol] | > 10000
CC1CCCc2cc(O)cc(-c3c4c(c5c(N6C[C@H]7CC[C@@H](C6)N7)nc(OC[C@@]67CCCN6C[C@H](F)C7)nc5c3F)OCO4)c21 (stereo partly drawn) [Example 391, 4-(9-((1R,5S)-3,8-diazabicyclo[3.2.1]octan-3-yl)-5-fluoro-7-(((2R,7aS)-2-fluorotetrahydro-1H-pyrrolizin-7a(5H)-yl)methoxy)-[1,3]dioxolo[4,5-f]quinazolin-4-yl)-5-methyl-5,6,7,8-tetrahydronaphthalen-2-ol] | 100
CC1CCCc2cc(O)cc(-c3c(F)c4nc(OC[C@@]56CCCN5C[C@H](F)C6)nc(N5C[C@H]6CC[C@@H](C5)N6)c4c4cncn34)c21 (stereo partly drawn) [Example 417, 4-(1-((1R,5S)-3,8-diazabicyclo[3.2.1]octan-3-yl)-5-fluoro-3-(((2R,7aS)-2-fluorotetrahydro-1H-pyrrolizin-7a(5H)-yl)methoxy)imidazo[1′,5′:1,2]pyrido[4,3-d]pyrimidin-6-yl)-5-methyl-5,6,7,8-tetrahydronaphthalen-2-ol] | 35
[O-][S+]1C2CCC1CN(c1nc(OC[C@@]34CCCN3C[C@H](F)C4)nc3c(F)c(-c4cc(O)cc5ccc(F)c(F)c45)ccc13)C2 (stereo partly drawn) [Example 165, (1R,5S,8R)-3-(7-(7,8-difluoro-3-hydroxynaphthalen-1-yl)-8-fluoro-2-(((2R,7aS)-2-fluorotetrahydro-1H-pyrrolizin-7a(5H)-yl)methoxy)quinazolin-4-yl)-8-thia-3-azabicyclo[3.2.1]octane 8-oxide] | > 2500
C#Cc1c(F)ccc2cccc(-c3ccc4c(N5C[C@H]6CC[C@@H](C5)N6)nc(OC[C@]56CCCN5[C@@H](COC(=O)N(C)C)CC6)nc4c3)c12 [Example 155, ((3R,7aR)-7a-(((4-((1R, 5S)-3,8-diazabicyclo [3.2.1]octan-3-yl)-7-(8-ethynyl-7-fluoronaphthalen-1-yl)quinazolin-2-yl)oxy)methyl)hexahydro-1H-pyrrolizin-3-yl)methyl dimethylcarbamate] | 215
C#Cc1c(F)ccc2cc(O)cc(-c3ccc4c(N5CC(C)(N)C5)nc(OC[C@@]56CCCN5C[C@H](F)C6)nc4c3F)c12 [Example 217, 4-(4-(3-amino-3-methylazetidin-1-yl)-8-fluoro-2-(((2R,7aS)-2-fluorotetrahydro-1H-pyrrolizin-7a(5H)-yl)methoxy)quinazolin-7-yl)-5-ethynyl-6-fluoronaphthalen-2-ol] | 835
Cc1cc(N)nc(-c2ncc3c(N4C[C@H]5CC[C@@H](C4)N5)nc(OC[C@@]45CCCN4C[C@H](F)C5)nc3c2F)c1C(F)(F)F [Example 41, 6-(4-((1R,5S)-3,8-diazabicyclo[3.2.1]octan-3-yl)-8-fluoro-2-(((2R,7aS)-2-fluorotetrahydro-1H-pyrrolizin-7a(5H)-yl)methoxy)pyrido[4,3-d]pyrimidin-7-yl)-4-methyl-5-(trifluoromethyl) pyridin-2-amine] | > 2500
CC1CCCc2cc(O)cc(C3=C(F)c4nc(OC[C@@]56CCCN5C[C@H](F)C6)nc(N5C[C@H]6CC[C@@H](C5)N6)c4C4=NCCN43)c21 (stereo partly drawn) [Example 407, 4-(10-((1R,5S)-3,8-diazabicyclo[3.2.1]octan-3-yl)-6-fluoro-8-(((2R,7aS)-2-fluorotetrahydro-1H-pyrrolizin-7a(5H)-yl)methoxy)-2,3-dihydroimidazo[1′,2′:1,2]pyrido[4,3-d]pyrimidin-5-yl)-5-methyl-5,6,7,8-tetrahydronaphthalen-2-ol] | 35
Oc1cc(C2=C(F)c3nc(OC[C@@]45CCCN4C[C@H](F)C5)nc(N4C[C@H]5CC[C@@H](C4)N5)c3C3=NCCN32)c2ccccc2c1 [Example 401, 4-(10-((1R,5S)-3,8-diazabicyclo[3.2.1]octan-3-yl)-6-fluoro-8-(((2R,7aS)-2-fluorotetrahydro-1H-pyrrolizin-7a(5H)-yl)methoxy)-2,3-dihydroimidazo[1′,2′:1,2]pyrido[4,3-d]pyrimidin-5-yl)naphthalen-2-ol] | 100
N#Cc1c(OC[C@@]23CCCN2C[C@H](F)C3)nc2c(F)c(-c3cc(O)cc4cccc(F)c34)ccc2c1N1C[C@H]2CC[C@@H](C1)N2 [Example 180, 4-((1R,5S)-3,8-diazabicyclo[3.2.1]octan-3-yl)-8-fluoro-7-(8-fluoro-3-hydroxynaphthalen-1-yl)-2-(((2R,7aS)-2-fluorotetrahydro-1H-pyrrolizin-7a(5H)-yl)methoxy)quinoline-3-carbonitrile] | 556
C#Cc1c(F)ccc2cc(O)cc(-c3ccc4c(N5CCC6(CCCS6)CC5)nc(OC[C@@]56CCCN5C[C@H](F)C6)nc4c3F)c12 [Example 109, 5-ethynyl-6-fluoro-4-(8-fluoro-2-(((2R,7aS)-2-fluorotetrahydro-1H-pyrrolizin-7a(5H)-yl)methoxy)-4-(1-thia-8-azaspiro[4.5]decan-8-yl)quinazolin-7-yl)naphthalen-2-ol] | > 2500
C#Cc1c(F)ccc2cc(O)cc(-c3ccc4c(N5CC6(CCN6)C5)nc(OC[C@@]56CCCN5C[C@H](F)C6)nc4c3F)c12 [Example 216, 5-ethynyl-6-fluoro-4-(8-fluoro-2-(((2R,7aS)-2-fluorotetrahydro-1H-pyrrolizin-7a(5H)-yl)methoxy)-4-(1,6-diazaspiro[3.3]heptan-6-yl)quinazolin-7-yl)naphthalen-2-ol] | 3480
CCc1nccc2cc(O)cc(-c3ncc4c(N5C[C@H]6CC[C@@H](C5)N6)nc(OC[C@@]56CCCN5C[C@H](F)C6)nc4c3F)c12 [Example 340, 8-(4-((1R,5S)-3,8-diazabicyclo[3.2.1]octan-3-yl)-8-fluoro-2-(((2R,7aS)-2-fluorotetrahydro-1H-pyrrolizin-7a(5H)-yl)methoxy)pyrido[4,3-d]pyrimidin-7-yl)-1-ethylisoquinolin-6-ol] | 20
Oc1cc(-c2ncc3c(N4C[C@H]5CC[C@@H](C4)N5)nc(OCC4(CN5CCCC5)CC4)nc3c2F)c2c(F)cccc2c1 [Example 6, 4-(4-((1R,5S)-3,8-diazabicyclo[3.2.1]octan-3-yl)-8-fluoro-2-((1-(pyrrolidin-1-ylmethyl)cyclopropyl)methoxy)pyrido[4,3-d]pyrimidin-7-yl)-5-fluoronaphthalen-2-ol] | 14
Oc1cc2c(c(-c3ncc4c(N5C[C@H]6CC[C@@H](C5)N6)nc(OC[C@@]56CCCN5C[C@H](F)C6)nc4c3F)c1)C(C(F)(F)F)CCC2 (stereo partly drawn) [Example 260, 4-(4-((1R,5S)-3,8-diazabicyclo[3.2.1]octan-3-yl)-8-fluoro-2-(((2R,7aS)-2-fluorotetrahydro-1H-pyrrolizin-7a(5H)-yl)methoxy)pyrido[4,3-d]pyrimidin-7-yl)-5-(trifluoromethyl)-5,6,7,8-tetrahydronaphthalen-2-ol] | 417
